# Test results reported in ChEMBL document CHEMBL1255511, “Design of a series of bicyclic HIV-1 integrase inhibitors. Part 1: selection of the scaffold” (Bioorg Med Chem Lett, 2010).
# Experiments:
# [1] = molecular target: Human immunodeficiency virus type 1 integrase (Human immunodeficiency virus 1, UniProt Q7ZJM1); test: Inhibition of HIV1 integrase 3'-strand transfer
# [2] = system: Human immunodeficiency virus 1; test: Antiviral activity against HIV1 NL4-3 infected in human Hut78 cells assessed as inhibition of viral replication in presence of 10 % fetal bovine serum; assay type: functional, organism-based; details: Human immunodeficiency virus 1, NL4-3, HuT78
# [3] = system: Human immunodeficiency virus 1; test: Antiviral activity against HIV1 NL4-3 infected in human Hut78 cells assessed as inhibition of viral replication in 50 % normal human serum; assay type: functional, organism-based; details: Human immunodeficiency virus 1, NL4-3, HuT78, Serum
# Chain of Human immunodeficiency virus type 1 integrase (Q7ZJM1 whole entry): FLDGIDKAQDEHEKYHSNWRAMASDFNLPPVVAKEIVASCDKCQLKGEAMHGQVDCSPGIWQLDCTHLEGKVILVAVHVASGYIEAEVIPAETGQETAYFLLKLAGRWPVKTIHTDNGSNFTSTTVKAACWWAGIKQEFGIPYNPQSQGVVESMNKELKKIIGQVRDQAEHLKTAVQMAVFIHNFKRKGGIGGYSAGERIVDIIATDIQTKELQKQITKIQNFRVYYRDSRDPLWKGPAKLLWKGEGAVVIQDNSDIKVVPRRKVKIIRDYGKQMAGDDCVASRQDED
smiles,measurement,setting,value
O=C(NCc1ccc(F)cc1)c1nc2[nH]c3ccccc3n2c(=O)c1O,IC50,[1],> 100000 nM
O=C(NCc1ccc(F)cc1)c1nc2ccc(Br)cn2c(=O)c1O,IC50,[1],445 nM
N#Cc1c[nH]n2c(=O)c(O)c(C(=O)NCc3ccc(F)cc3)nc12,IC50,[1],13700 nM
Cn1ccn2c(=O)c(O)c(C(=O)NCc3ccc(F)cc3)nc12,IC50,[1],76.8 nM
O=C(NCc1ccc(F)cc1)c1nc2c(OCc3ccc(F)cc3)cc(N3CCOCC3)cn2c(=O)c1O,EC50,[2],80 nM
same,IC50,[1],275 nM
O=C(NCc1ccc(F)cc1)c1nc2c3ccccc3on2c(=O)c1O,IC50,[1],> 10000 nM
O=C(NCc1ccc(F)cc1)c1nc2c(I)cc(N3CCOCC3)cn2c(=O)c1O,EC50,[2],6 nM
same,IC50,[1],85 nM
same,EC50,[3],50 nM
O=C(NCc1ccc(F)cc1)c1nc2c(N3CCCS3(=O)=O)cc(N3CCOCC3)cn2c(=O)c1O,EC50,[2],10.3 nM
same,IC50,[1],195 nM
same,EC50,[3],18 nM
O=C(NCc1ccc(F)cc1)c1nc2ccc(N3CCOCC3)cn2c(=O)c1O,EC50,[2],215 nM
same,IC50,[1],80 nM
O=C(NCc1ccc(F)cc1)c1nc2sccn2c(=O)c1O,IC50,[1],33200 nM
Cc1nnc(C(=O)NC(C)(C)c2nc(C(=O)NCc3ccc(F)cc3)c(O)c(=O)n2C)o1 [RALTEGRAVIR POTASSIUM],EC50,[2],9.4 nM
same,EC50,[3],7.1 nM
CN1CCN(c2cc(N3CCN(C)S3(=O)=O)c3nc(C(=O)NCc4ccc(F)cc4)c(O)c(=O)n3c2)CC1,EC50,[2],3 nM
same,EC50,[3],4 nM
O=C(NCc1cc(Cl)cc(Cl)c1)c1nc2c(N3CCCS3(=O)=O)cc(N3CCOCC3)cn2c(=O)c1O,EC50,[2],0.2 nM
same,IC50,[1],130 nM
same,EC50,[3],43 nM
Cn1c2ccccc2n2c(=O)c(O)c(C(=O)NCc3ccc(F)cc3)nc12,IC50,[1],20200 nM
Cc1cn2c(=O)c(O)c(C(=O)NCc3ccc(F)cc3)nc2s1,IC50,[1],4250 nM
COc1cccc2c1sc1nc(C(=O)NCc3ccc(F)cc3)c(O)c(=O)n12,IC50,[1],> 50000 nM
O=C(NCc1ccc(F)cc1)c1nc2c(N3CCCS3(=O)=O)cc(N3CCNCC3)cn2c(=O)c1O,EC50,[2],280 nM
same,EC50,[3],43 nM
O=C(NCc1ccc(F)cc1)c1nc2ccccn2c(=O)c1O,IC50,[1],587 nM
COc1cc(N2CCOCC2)cn2c(=O)c(O)c(C(=O)NCc3ccc(F)cc3)nc12,EC50,[2],9.5 nM
same,IC50,[1],170 nM
same,EC50,[3],1400 nM
O=C(NCc1ccc(F)cc1)c1nc2c(OCC3CC3)cc(N3CCOCC3)cn2c(=O)c1O,EC50,[2],12 nM
same,IC50,[1],429 nM
same,EC50,[3],590 nM
O=C(NCc1ccc(F)cc1)c1nc2sc(N3CCOCC3)cn2c(=O)c1O,IC50,[1],1130 nM
CCN(C(=O)C(=O)N1CCOCC1)c1cccn2c(=O)c(O)c(C(=O)NCc3ccc(F)cc3)nc12,EC50,[2],31 nM
O=C(NCc1ccc(F)cc1)c1nc2c(Cl)cc(N3CCOCC3)cn2c(=O)c1O,EC50,[2],11 nM
same,IC50,[1],135 nM
same,EC50,[3],158 nM
O=C(NCc1ccc(F)cc1)c1nc2c(Br)cc(N3CCOCC3)cn2c(=O)c1O,EC50,[2],7 nM
same,IC50,[1],130 nM
same,EC50,[3],70 nM
CN1CCN(c2cc(N(C)S(C)(=O)=O)c3nc(C(=O)NCc4ccc(F)cc4)c(O)c(=O)n3c2)CC1,EC50,[2],19.8 nM
same,EC50,[3],61.5 nM
O=C(NCc1ccc(F)cc1)c1nc2c(N3CCOCC3)cc(N3CCOCC3)cn2c(=O)c1O,EC50,[2],730 nM
same,IC50,[1],755 nM
same,EC50,[3],1550 nM
O=C(NCc1ccc(F)cc1)c1nc2c3ccccc3[nH]n2c(=O)c1O,IC50,[1],> 10000 nM
Cc1cc2nc(C(=O)NCc3ccc(F)cc3)c(O)c(=O)n2o1,IC50,[1],5100 nM
O=C(NCc1ccc(F)cc1)c1nc2cc(-c3ccccc3)[nH]n2c(=O)c1O,IC50,[1],> 100000 nM
O=C(NCc1ccc(F)cc1)c1nc2sc3ccccc3n2c(=O)c1O,IC50,[1],> 30000 nM
CC(=O)N1CCN(c2cc(Br)c3nc(C(=O)NCc4ccc(F)cc4)c(O)c(=O)n3c2)CC1,EC50,[2],8 nM
same,IC50,[1],110 nM
same,EC50,[3],40 nM
Cn1ccc2nc(C(=O)NCc3ccc(F)cc3)c(O)c(=O)n21,IC50,[1],> 30000 nM
O=C(NCc1ccc(F)cc1)c1nc2c3ccc(N4CCOCC4)cc3on2c(=O)c1O,IC50,[1],> 10000 nM
CC(C)Oc1cc(N2CCOCC2)cn2c(=O)c(O)c(C(=O)NCc3ccc(F)cc3)nc12,EC50,[2],5 nM
same,IC50,[1],245 nM
Cn1c2ccccc2c2nc(C(=O)NCc3ccc(F)cc3)c(O)c(=O)n21,IC50,[1],626 nM
